This is an account of results in patent publication US9193731B2, “Antimicrobial compounds and methods of making and using the same” (Melinta Therapeutics, Inc., priority 2009, dated 2015).

Some results are limits rather than exact numbers.

This assay deals with Escherichia coli strain ATCC25922. Put plainly: standard microdilution assay to determine minimum inhibitory concentrations (MICs). It counts as cell-based. Conditions: for E. coli ATCC25922 MIC: Escherichia coli strain ATCC25922, microdilution; for MIC: Escherichia coli, ATCC25922, Escherichia coli strain ATCC25922, microdilution, read-out: E. coli ATCC25922 MIC. Put shortly:
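Broth microdilution MIC against E. coli ATCC25922, following CLSI protocols, typically in a 100 microliter final volume. Results reported as +/− relative to a 16 micrograms/ml cutoff.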
(In general: Dilution methods test growth across graded concentrations, often in twofold steps.)

As for `N=C(N)NCCCNCc1ccc(-n2cc3cc(-c4cccc(S(=O)(=O)N(CCc5ccc(F)cc5)C5CCNCC5)c4)[nH]c3nc2=O)cc1` [Compound 1172], the “E. coli ATCC25922 MIC” value was “+ (a “+” indicates that the compound has an MIC value of 16 micrograms/ml or less)”. As a reminder, the MIC is the least concentration at which growth counts as inhibited. For the molecule `NCC(O)Cn1cc2cc(-c3ccc(S(=O)(=O)NC4CCNCC4)cc3)[nH]c2nc1=O` (stereo not drawn) [Compound 1149], the MIC is greater than 16 µg/mL. The same measure, in the same setting: the value for `NCCCCN1CCC(n2cc3cc(-c4ccc(F)cc4)[nH]c3nc2=O)C1` (stereo not drawn) [Compound 559] was greater than 16 µg/mL. On to `N=C(N)NCCCNCc1ccc(-n2cc3cc(-c4ccc(S(=O)(=O)N(CCOc5ccc(F)cc5)C5CCNCC5)cc4)[nH]c3nc2=O)cc1` [Compound 770], for which the “E. coli ATCC25922 MIC” value is listed as “+ (a “+” indicates that the compound has an MIC value of 16 micrograms/ml or less)”. On to `N#CCCCOc1cccc(-c2cc3cn(-c4ccc(CN)cc4)c(=O)nc3[nH]2)c1` [Compound 1151], for which the MIC was greater than 16 µg/mL. Same read-out and setting: the value for `N=C(N)NCCCNCc1ccc(C2N=c3cc(C4CNCCO4)[nH]c3=NC2=O)cc1` (stereo not drawn) [Compound 1329] was greater than 16 µg/mL. As for `N=C(N)NCCCN1CC=C(c2cn3cc[nH]c3nc2=O)CC1` [Compound 572], the MIC was greater than 16 µg/mL. On the same count and under the same terms, next, `NCCCNCc1ccc(-n2cc3cc(CCC4CCCCC4)[nH]c3nc2=O)cc1` [Compound 609]: greater than 16 µg/mL; `NCCCN(CCCN)Cc1ccc(-n2cc3cc(-c4ccc(F)cc4)[nH]c3nc2=O)cc1` [Compound 180]: greater than 16 µg/mL.

As to `NCCCNCc1ccc(-c2cn3cc(-c4ccc(C(=O)N5CCN(CCF)CC5)cc4)[nH]c3nc2=O)cc1` [Compound 825], the “E. coli ATCC25922 MIC” value was “− (a “−” indicates that the compound has an MIC value greater than 16 micrograms/ml)”. Still for that read-out and setting: next, `N=C(N)NCCCNC(=O)c1ccc(-n2cc3cc(-c4ccc(S(=O)(=O)NC5CCNC5)cc4)[nH]c3nc2=O)cc1` (stereo not drawn) [Compound 1310]: “+ (a “+” indicates that the compound has an MIC value of 16 micrograms/ml or less)”; `N=C(N)NCCCNCc1ccc(-n2cc3cc(-c4cccc(S(=O)(=O)N(CC5CC5)C5CCNCC5)c4)[nH]c3nc2=O)cc1` [Compound 1018]: “+ (a “+” indicates that the compound has an MIC value of 16 micrograms/ml or less)”.

As to `COc1cc(-n2cc3cc(-c4cccc(OCC(F)CN)c4)[nH]c3nc2=O)ccc1CNCCCNC(=N)N` (stereo not drawn) [Compound 1391], the “E. coli ATCC25922 MIC” value was “+ (a “+” indicates that the compound has an MIC value of 16 micrograms/ml or less)”. Still for that read-out and setting: the value for `CSCc1cc(CCCCN)cc(-c2cc3cn(-c4ccc(CNCCCNC(=N)N)cc4)c(=O)nc3[nH]2)c1` [Compound 2083a] was “+ (a “+” indicates that the compound has an MIC value of 16 micrograms/ml or less)”; that for `N=C(N)NCCCNCc1ccc(-n2cc3cc(-c4cc(CCCCN)cc(SC(F)(F)F)c4)[nH]c3nc2=O)cc1` [Compound 2046a] was “+ (a “+” indicates that the compound has an MIC value of 16 micrograms/ml or less)”. `NCCCNCc1ccc(-n2cc3cc(-c4ccc(C(=O)NC5CCNCC5)cc4)[nH]c3nc2=O)cc1` [Compound 227]: the MIC is less than 16 µg/mL. On the same count and under the same terms, next, `N=C(N)NCCCNCc1ccc(-n2cc3cc(-c4cc(C(=O)N5CCN(c6ccc(F)cc6)CC5)cc(N5CCNCC5)c4)[nH]c3nc2=O)cc1` [Compound 755]: less than 16 µg/mL; `N=C(N)NCCCNCc1ccc(-n2cc3cc(C4CCCC(CNCCN)C4)[nH]c3nc2=O)cc1` (stereo not drawn) [Compound 2026a]: less than 16 µg/mL.

In the case of `O=c1nc2[nH]c(-c3ccc(S(=O)(=O)NC4CCNCC4)cc3)cc2cn1-c1ccccc1OCC1CCNCC1` [Compound 1165], the minimum inhibitory concentration (MIC) was greater than 16 µg/mL.

`N=C(N)NCCCNCc1ccc(-n2cc3cc(-c4ccc(S(=O)(=O)N(CC5CCOCC5)C5CCCNC5)cc4)[nH]c3nc2=O)cc1` (single isomer, unassigned) [Compound 844]: the “E. coli ATCC25922 MIC” value was “+ (a “+” indicates that the compound has an MIC value of 16 micrograms/ml or less)”. `O=c1nc2[nH]c(-c3ccc(S(=O)(=O)NC4CCNCC4)cc3F)cc2cn1-c1ccc(CNCCCCl)cc1` [Compound 250]: the MIC is greater than 16 µg/mL.

As for `NCCCN(CCCN)Cc1ccc(-n2cc3cc(-c4ccc(S(=O)(=O)N(CC(=O)O)C5CCNCC5)cc4)[nH]c3nc2=O)cc1` [Compound 230], the minimum inhibitory concentration (MIC) is greater than 16 µg/mL.

In the case of `CC(CN)CN1CCC(c2cc3cn(-c4ccc(CNCCCN)cc4)c(=O)nc3[nH]2)C1` (stereo not drawn) [Compound 2041a], the “E. coli ATCC25922 MIC” value is reported as “+ (a “+” indicates that the compound has an MIC value of 16 micrograms/ml or less)”. Same read-out and setting: next, `N=C(N)NCCCNCc1ccc(-n2cc3cc(-c4cc(C(=O)Nc5cccc(F)c5)cc(N5CCNCC5)c4)[nH]c3nc2=O)cc1` [Compound 982]: “+ (a “+” indicates that the compound has an MIC value of 16 micrograms/ml or less)”.

As for `N=C(N)NCCCNCc1ccc(-n2cc3cc(-c4ccc(S(=O)(=O)[C@H]5CCNC5)cc4)[nH]c3nc2=O)cc1` [Compound 1154], the MIC was less than 16 µg/mL. Take `N=C(N)NCCCNC(=O)Cn1cc2cc(-c3ccc(S(=O)(=O)NC4CCNCC4)cc3)[nH]c2nc1=O` [Compound 1289]: the “E. coli ATCC25922 MIC” value was “− (a “−” indicates that the compound has an MIC value greater than 16 micrograms/ml)”. Same read-out and setting: the value for `N=C(N)NCCCNCc1ccc(-n2cc3cc(-c4cc(C(=O)N5CCN(CCO)CC5)cc(N5CCNCC5)c4)[nH]c3nc2=O)cc1` [Compound 861] was “− (a “−” indicates that the compound has an MIC value greater than 16 micrograms/ml)”. Take `N=C(N)NCCCNCc1ccc(-n2cc3cc(-c4cccc(S(=O)(=O)N(Cc5ccc(Cl)c(Cl)c5)C5CCNCC5)c4)[nH]c3nc2=O)cc1` [Compound 979]: the “E. coli ATCC25922 MIC” value was “+ (a “+” indicates that the compound has an MIC value of 16 micrograms/ml or less)”. Consider `NCc1ccc(-n2cc3cc(-c4ccc(C(=O)NC5CCNCC5)cc4)[nH]c3nc2=O)cc1` [Compound 224], for which the MIC is less than 16 µg/mL. For the molecule `N=C(N)NCCCNCc1ccc(-c2cn3cc[nH]c3nc2=O)cc1` [Compound 564, N-{3-[4-(7-Oxo-1,7-dihydro-imidazo[1,2-a]pyrimidin-6-yl)-benzylamino]-propyl}-guanidine], the MIC is less than 16 µg/mL. In the case of `CC1CN(C(=O)c2ccc(-c3cn4cc(-c5ccc(CNCCCNC(=N)N)cc5)c(=O)nc4[nH]3)cc2)CCN1` (stereo not drawn) [Compound 822], the “E. coli ATCC25922 MIC” value is on record as “+ (a “+” indicates that the compound has an MIC value of 16 micrograms/ml or less)”. Turning to `N=C(N)CCCOc1cccc(-c2cc3cn(-c4ccc(CNCCCNC(=N)N)cc4)c(=O)nc3[nH]2)c1` [Compound 1191], the minimal inhibitory concentration (MIC) is greater than 16 µg/mL.

On to `Cn1cc2cc(-c3ccc(F)cc3)[nH]c2nc1=O` [Compound 580], for which the MIC is greater than 16 µg/mL.

For `NCCCNCc1ccc(-n2cc3cc(Cc4ccccc4)[nH]c3nc2=O)cc1` [Compound 621], the MIC was greater than 16 µg/mL. The same measure, in the same setting: next, `N=C(N)NCCCNC(=O)c1ccc(-n2cc3cc(C4CCCN(C(=N)N)C4)[nH]c3nc2=O)cc1` (stereo not drawn) [Compound 1256]: less than 16 µg/mL; `N=C(N)NCCCNCc1ccc(-n2cc3cc(C[C@@H](CO)NC(=O)c4ccccc4)[nH]c3nc2=O)cc1` [Compound 1231]: greater than 16 µg/mL. Regarding `NC(N)=NCCCNCc1ccc(-n2cc3cc(CCS(=O)(=O)CCNC4CCNCC4)[nH]c3nc2=O)cc1` [Compound 1251], the “E. coli ATCC25922 MIC” value is “+ (a “+” indicates that the compound has an MIC value of 16 micrograms/ml or less)”. For `O=c1nc2[nH]c(-c3ccc(S(=O)(=O)NC4CCNCC4)cc3)cc2cn1-c1ccccc1O` [Compound 1208], the MIC was greater than 16 µg/mL. For the molecule `NC(=O)CCCN(C1CCNCC1)S(=O)(=O)c1ccc(-c2cc3cn(-c4ccc(CNC(=O)CCN=C(N)N)cc4)c(=O)nc3[nH]2)cc1` [Compound 1194], the “E. coli ATCC25922 MIC” value is recorded as “− (a “−” indicates that the compound has an MIC value greater than 16 micrograms/ml)”. Regarding `COC(=O)C(N)Cc1cc2cn(-c3ccc(CN(CCCN)CCCN)cc3)c(=O)nc2[nH]1` (stereo not drawn) [Compound 169], the MIC is greater than 16 µg/mL. Still for that read-out and setting: next, `N=C(N)NCCCNCc1ccc(-n2cc3cc(-c4cc(CCCCN)cc(C(F)(F)F)c4)[nH]c3nc2=O)cc1` [Compound 2029a]: less than 16 µg/mL. As to `CNCc1ccc(-n2cc3cc(-c4ccc(S(=O)(=O)N(CCCN5Cc6ccccc6C5)C5CCNCC5)cc4)[nH]c3nc2=O)cc1` [Compound 1054], the MIC is greater than 16 µg/mL. Still for that read-out and setting: next, `NCCCNCc1ccc(-c2cn3cc(-c4ccc(S(=O)(=O)N5CCNCC5)cc4)[nH]c3nc2=O)cc1` [Compound 789]: less than 16 µg/mL. As to `NCCCNCc1ccc(-n2cc3cc(-c4cc(C(=O)N5CCN(CCO)CC5)cc(N5CCNCC5)c4)[nH]c3nc2=O)cc1` [Compound 860], the “E. coli ATCC25922 MIC” value is given as “− (a “−” indicates that the compound has an MIC value greater than 16 micrograms/ml)”. As to `NCCCNCc1ccc(-n2cc3cc(-c4ccc(S(=O)(=O)N(CC5CCOCC5)C5CCCNC5)cc4)[nH]c3nc2=O)cc1` (stereo not drawn) [Compound 831], the “E. coli ATCC25922 MIC” value is on record as “+ (a “+” indicates that the compound has an MIC value of 16 micrograms/ml or less)”.

Consider `NCCCNCc1ccc(-c2cn3cc(-c4ccc(S(=O)(=O)N5CCOCC5)cc4)[nH]c3nc2=O)cc1` [Compound 746], for which the MIC is greater than 16 µg/mL. For `NCCCNCc1ccc(-n2cc3cc(-c4ccc(S(=O)(=O)N(Cc5ccc(Cl)c(Cl)c5)C5CCNCC5)cc4)[nH]c3nc2=O)cc1` [Compound 697], the MIC was less than 16 µg/mL. Same read-out and setting: next, `N=C(N)NCCCN(CCCN)Cc1ccc(-n2cc3cc(-c4ccc(C(=O)NC5CCNCC5)cc4)[nH]c3nc2=O)cc1` [Compound 217]: less than 16 µg/mL; `N=C(N)NCCCNCc1ccc(-c2cn3cc(-c4ccc(C(=O)N5CCC(C(N)=O)C5)cc4)[nH]c3nc2=O)cc1` (stereo not drawn) [Compound 692]: greater than 16 µg/mL. `N=C(N)N[C@@H]1CCN(Cc2ccc(-n3cc4cc(-c5ccc(S(=O)(=O)N(CCCN6CCCCC6)C6CCNCC6)cc5)[nH]c4nc3=O)cc2)C1` [Compound 1201]: the “E. coli ATCC25922 MIC” value is listed as “+ (a “+” indicates that the compound has an MIC value of 16 micrograms/ml or less)”.

For the molecule `CC(C)(CN)COc1cccc(-c2cc3cn(-c4ccc(CNCCCNC(=N)N)cc4)c(=O)nc3[nH]2)c1` [Compound 1327], the “E. coli ATCC25922 MIC” value was “+ (a “+” indicates that the compound has an MIC value of 16 micrograms/ml or less)”.
